Data taken from ChEMBL document CHEMBL4261633, “Butenolides from a marine-derived fungus Aspergillus terreus with antitumor activities against pancreatic ductal adenocarcinoma cells” (Bioorg Med Chem, 2018).

Columns and labels:
Assay type in all cases: functional, cell-based
HT-29 = test: Antiproliferative activity against human HT-29 cells after 24 hrs by CCK8 assay; conditions: HT-29, 24 h
BEAS-2B = test: Antiproliferative activity against human BEAS2B cells after 24 hrs by CCK8 assay
HepG2 = test: Antiproliferative activity against human HepG2 cells after 24 hrs by CCK8 assay; conditions: HepG2, 24 h
PANC-1 = test: Antiproliferative activity against human PANC1 cells after 24 hrs by CCK8 assay; conditions: PANC-1, 24 h
HCC1806 = test: Antiproliferative activity against human HCC1806 cells after 24 hrs by CCK8 assay; conditions: HCC1806, 24 h

Measured: IC50

COC(=O)[C@]1(Cc2ccc3c(c2)CCC(C)(C)O3)OC(=O)C(O)=C1c1ccc(O)cc1
> 20 µM: all assays above

CC(C)(O)C1Cc2cc(C[C@H]3OC(=O)C(O)=C3c3ccc(O)cc3)ccc2O1 (stereo not given in full)
> 20 µM: all assays above

COC(=O)[C@]1(Cc2ccc(O)c(CC=C(C)C)c2)OC(=O)C(O)=C1c1ccc(O)cc1
> 20 µM: all assays above

COC(=O)[C@]1(Cc2ccc3c(c2)CC(C(C)(C)O)O3)OC(=O)C(O)=C1c1ccccc1 (stereo not given in full)
> 20 µM: all assays above

COC(=O)[C@]1(Cc2ccc(O)c(CC3OC3(C)C)c2)OC(=O)C(O)=C1c1ccc(O)cc1 (stereo not given in full)
> 20 µM: all assays above

COC(=O)[C@]1(Cc2ccc3c(c2)C=CC(C)(C)O3)OC(=O)C(O)=C1c1ccc(O)cc1
> 20 µM: all assays above
